Article PMC7170309, “Imidazopyridine-fused [1,3]diazepinones: modulations of positions 2 to 4 and their impacts on the anti-melanoma activity” (Journal of Enzyme Inhibition and Medicinal Chemistry, 2020)

Tests used:
[1] = test system: A375 melanoma cells; assay: Neutral red uptake (NRU) viability assay, A375; format: cell-based, human; conditions: Homo sapiens, A-375, 72 h, mean ± SD of three experiments
Description: (§1) Melanoma human cancer cell line (A375 and MDA-MB-435) were obtained from ATCC. The NIH-3T3 cell line was generously gifted by the ANSM (French National Agency for Medicines and Health Products Safety, Vendargues, France). Cells were cultured in Dulbecco’s Modified Eagle Medium (DMEM, Sigma Aldrich) supplemented with 10% heat-inactivated foetal calf serum (FCS, Gibco), 2 mM glutamax (Gibco), 100 IU/mL penicillin G sodium (Sigma Aldrich), 100 lU/mL streptomycin sulphate (Sigma Aldrich). The cells were allowed to grow at 37 °C in a fully humidified atmosphere containing 5% CO2.
(§2) A viability assay was used to evaluate the cytotoxic activity on A375 and MDA-MB-435 melanoma cells as previously described. According to OCDE/ICCVAM guidance n°129, NRU assay was also used to evaluate the toxicity on the non-cancerous NIH-3T3 cells. Cells were seeded at a final concentration of 2000 cells/well (A375), 3000 cells/well (NIH-3T3) or 7500 cells/well (MDA-MB-435) in 96-well microtiter plates for 24 h. Then, cells were exposed to two negative controls (1% DMSO in culture medium (vehicle) and culture medium alone), or to different compounds freshly dissolved in DMSO, in a range of concentration from 0.01 to 40 µM (six wells per concentration). After 72 h of incubation, cells were stained with new medium containing 50 µg/mL of neutral red (3-amino-7-dimethylamino-2-methylphenazine hydrochloride, Sigma Aldrich) at 37 °C for 2 h. The neutral red medium solution was then removed and the wells were washed with PBS. Finally, 100 µL of solution containing ethanol, acetic acid and water (50/1/49 v/v/v respectively) were added into the wells and the absorbance was measured at 540 nm using the microplate reader 352 Multiscan MS (Labsystems). Cell survival rates were normalised to the absorbance values of untreated control cells. IC50 was obtained using a logistic regression model on Graphpad Prism 5.0 software. Results are given as the mean ± standard deviation (SD) of three independent experiments. Statistical analysis was performed using the Student’s t-test.

[2] = test system: MDA-MB-435 melanoma cells; assay: Neutral red uptake (NRU) viability assay, MDA-MB-435; format: cell-based, human; conditions: Homo sapiens, MDA-MB-435; NRU assay, 72 h, mean ± SD of three experiments
Description: as §1, §2

[3] = test system: NCI-60 cancer cell line panel; assay: NCI-60 SRB assay, whole panel; format: cell-based, human; conditions: 10 µM, 48 h
Description: (§3) Primary anticancer assay was performed on a panel of 60 human cancer cell lines derived from nine neoplastic diseases, in accordance with the protocol of the Drug Evaluation Branch, National Cancer Institute, Bethesda, Maryland, USA[22]. Cells were incubated with tested compounds at 10 µM for 48 h. The growth percentage was evaluated spectrophotometrically using a protein binding dye, SRB. Results for each tested compound were reported as the percent of growth of treated cells when compared to untreated control cells.
(§4) To better compare the activity profile of these two series of compounds, compounds 5 and 8 were selected and then evaluated towards a panel of sixty cancer cell lines corresponding to nine different cancer types, i.e. leukaemia, melanoma, as well as lung, colon, central nervous system, ovarian, renal, prostate and breast cancers (NCI evaluation). Indeed, it is now well established that the growth inhibitory patterns of anticancer drugs against the NCI-60 cell line panel correlated well with their modes of action. For example, compounds that bind to tubulin have similar growth inhibition patterns regardless of which site on tubulin they bind[30]. […] Compounds were tested using the sulforhodamine B (SRB) assay that provides a direct cell density index. The amount of dye incorporated by the cells increases with the increase of the total protein biomass. Cells were incubated for 48 h with compounds at 10 µM concentration, then cell growth was evaluated spectrophotometrically and presented as the percent of untreated control cells. Values of the most sensitive cell lines were compared to those obtained with JMV5038 (Figure 4, for all data see SI).

[4] = test system: MOLT-4; assay: NCI-60 SRB assay, MOLT-4 (Leukemia); format: cell-based, human; conditions: 10 µM, 48 h; for G%: growth vs untreated control
Description: as §3, §4

[5] = test system: EKVX; assay: NCI-60 SRB assay, EKVX (NSCLC); format: cell-based, human; conditions: 10 µM, 48 h; for G%: growth vs untreated control
Description: as §3, §4

[6] = test system: NCI-H23; assay: NCI-60 SRB assay, NCI-H23 (NSCLC); format: cell-based, human; conditions: 10 µM, 48 h; for G%: growth vs untreated control
Description: as §3, §4

[7] = test system: NCI-H460; assay: NCI-60 SRB assay, NCI-H460 (NSCLC); format: cell-based, human; conditions: 10 µM, 48 h; for G%: growth vs untreated control
Description: as §3, §4

[8] = test system: COLO 205; assay: NCI-60 SRB assay, COLO 205 (Colon Cancer); format: cell-based, human; conditions: 10 µM, 48 h; for G%: growth vs untreated control
Description: as §3, §4

[9] = test system: HCC-2998; assay: NCI-60 SRB assay, HCC-2998 (Colon Cancer); format: cell-based, human; conditions: 10 µM, 48 h; for G%: growth vs untreated control;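 for Mean G% - G%: mean growth across the NCI-60 panel minus this line's growth with positive meaning more sensitive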
Description: as §3, §4

[10] = test system: HT29; assay: NCI-60 SRB assay, HT29 (Colon Cancer); format: cell-based, human; conditions: 10 µM, 48 h; for G%: growth vs untreated control;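 for Mean G% - G%: mean growth across the NCI-60 panel minus this line's growth with positive meaning more sensitive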
Description: as §3, §4

[11] = test system: SW-620; assay: NCI-60 SRB assay, SW-620 (Colon Cancer); format: cell-based, human; conditions: 10 µM, 48 h; for G%: growth vs untreated control
Description: as §3, §4

[12] = test system: SNB-75; assay: NCI-60 SRB assay, SNB-75 (CNS Cancer); format: cell-based, human; conditions: 10 µM, 48 h; for G%: growth vs untreated control
Description: as §3, §4

[13] = test system: U251; assay: NCI-60 SRB assay, U251 (CNS Cancer); format: cell-based, human; conditions: 10 µM, 48 h; for G%: growth vs untreated control
Description: as §3, §4

[14] = test system: LOX IMVI; assay: NCI-60 SRB assay, LOX IMVI (Melanoma); format: cell-based, human; conditions: 10 µM, 48 h; for G%: growth vs untreated control
Description: as §3, §4

[15] = test system: SK-MEL-28; assay: NCI-60 SRB assay, SK-MEL-28 (Melanoma); format: cell-based, human; conditions: 10 µM, 48 h; for G%: growth vs untreated control
Description: as §3, §4

[16] = test system: OVCAR-3; assay: NCI-60 SRB assay, OVCAR-3 (Ovarian Cancer); format: cell-based, human; conditions: 10 µM, 48 h; for G%: growth vs untreated control;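 for Mean G% - G%: mean growth across the NCI-60 panel minus this line's growth with positive meaning more sensitive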
Description: as §3, §4

[17] = test system: A498; assay: NCI-60 SRB assay, A498 (Renal Cancer); format: cell-based, human; conditions: 10 µM, 48 h; for G%: growth vs untreated control
Description: as §3, §4

[18] = test system: TK-10; assay: NCI-60 SRB assay, TK-10 (Renal Cancer); format: cell-based, human; conditions: 10 µM, 48 h; for G%: growth vs untreated control;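 for Mean G% - G%: mean growth across the NCI-60 panel minus this line's growth with positive meaning more sensitive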
Description: as §3, §4

[19] = test system: MCF7; assay: NCI-60 SRB assay, MCF7 (Breast Cancer); format: cell-based, human; conditions: 10 µM, 48 h; for G%: growth vs untreated control
Description: as §3, §4

[20] = test system: HS 578T; assay: NCI-60 SRB assay, HS 578T (Breast Cancer); format: cell-based, human; conditions: 10 µM, 48 h; for G%: growth vs untreated control
Description: as §3, §4

[21] = test system: T-47D; assay: NCI-60 SRB assay, T-47D (Breast Cancer); format: cell-based, human; conditions: 10 µM, 48 h; for G%: growth vs untreated control
Description: as §3, §4

[22] = test system: MDA-MB-468; assay: NCI-60 SRB assay, MDA-MB-468 (Breast Cancer); format: cell-based, human; conditions: 10 µM, 48 h; for G%: growth vs untreated control
Description: as §3, §4

[23] = test system: RXF 393; assay: NCI-60 SRB assay, RXF 393 (Renal Cancer); format: cell-based, human; conditions: 10 µM, 48 h; for G%: growth vs untreated control
Description: as §3, §4

C[C@@H]1NC(c2csc3ccccc23)=Nc2nc3ccccn3c2C1=O [Compound 8, (4S)-4-methyl-2-benzothiophen-3-yl-3,4-dihydro-5H-pyrido[1’,2’:1,2]imidazo[4,5-d][1,3]diazepin-5-one]
IC50 [1]: 7.97 ± 0.65 µM | IC50 [2]: 10.12 ± 0.08 µM | Mean G% (mean growth over the panel) [3]: 74.87% | Mean G% - G% [4]: -8,59% | G% [4]: 83,46% | Mean G% - G% [5]: 0,63% | G% [5]: 74,24% | Mean G% - G% [6]: 3,92% | G% [6]: 70,95% | Mean G% - G% [7]: -10,32% | G% [7]: 85,19% | Mean G% - G% [8]: -25,43% | G% [8]: 100,30% | Mean G% - G% [9]: -23,19% | G% [9]: 98,06% | Mean G% - G% [10]: -10,58% | G% [10]: 85,45% | Mean G% - G% [11]: -0,70% | G% [11]: 75,57% | Mean G% - G% [12]: 60,36% | G% [12]: 14,51% | Mean G% - G% [13]: -12,47% | G% [13]: 87,34% | Mean G% - G% [14]: -18,67% | G% [14]: 93,54% | Mean G% - G% [15]: -23,33% | G% [15]: 98,20% | Mean G% - G% [16]: -5,26% | G% [16]: 80,13% | Mean G% - G% [17]: 13,54% | G% [17]: 61,33% | Mean G% - G% [18]: -36,86% | G% [18]: 111,73% | Mean G% - G% [19]: 24,29% | G% [19]: 50,58% | Mean G% - G% [20]: 15,40% | G% [20]: 59,47% | Mean G% - G% [21]: 28,96% | G% [21]: 45,91% | Mean G% - G% [22]: 4,18% | G% [22]: 70,69% | melting point: 135 to 137 °C

C[C@@H]1NC(c2ccc(N=[N+]=[N-])cc2)=Nc2nc3ccccn3c2C1=O [Compound 5, (4S)-4-methyl-2-(4-azidophenyl)-3,4-dihydro-5H-pyrido[1’,2’:1,2]imidazo[4,5-d][1,3]diazepin-5-one]
IC50 [1]: 7.13 ± 0.51 µM | IC50 [2]: 4.75 ± 0.21 µM | Mean G% (mean growth over the panel) [3]: 85,26% | Mean G% - G% [5]: 3,45% | G% [5]: 81,81% | Mean G% - G% [6]: -1,81% | G% [6]: 87,07% | Mean G% - G% [7]: -8,41% | G% [7]: 93,67% | Mean G% - G% [8]: 5,95% | G% [8]: 79,31% | Mean G% - G% [9]: 3,82% | G% [9]: 81,44% | Mean G% - G% [10]: 10,46% | G% [10]: 74,80% | Mean G% - G% [11]: 13,36% | G% [11]: 71,90% | Mean G% - G% [12]: 14,91% | G% [12]: 70,35% | Mean G% - G% [13]: -13,85% | G% [13]: 99,11% | Mean G% - G% [14]: 4,81% | G% [14]: 80,45% | Mean G% - G% [15]: -9,13% | G% [15]: 94,39% | Mean G% - G% [16]: -12,28% | G% [16]: 97,54% | Mean G% - G% [17]: -14,16% | G% [17]: 99,42% | Mean G% - G% [23]: -1,17% | G% [23]: 86,43% | Mean G% - G% [18]: -48,01% | G% [18]: 133,27% | Mean G% - G% [19]: 26,64% | G% [19]: 58,62% | Mean G% - G% [20]: -10,95% | G% [20]: 96,21% | Mean G% - G% [21]: 8,29% | G% [21]: 76,97% | Mean G% - G% [22]: 11,88% | G% [22]: 73,38% | melting point: 235 to 236 °C (dec.)

C[C@@H]1NC(c2ccc(Br)cc2)=Nc2nc3ccccn3c2C1=O [JMV5038]
IC50 [1]: 2.1 ± 0.42 µM | IC50 [2]: 1.3 ± 0.53 µM | Mean G% (mean growth over the panel) [3]: 54,24% | Mean G% - G% [4]: -3,27% | G% [4]: 57,51% | Mean G% - G% [6]: 0,57% | G% [6]: 53,67% | Mean G% - G% [7]: 21,74% | G% [7]: 32,50% | Mean G% - G% [8]: 27,91% | G% [8]: 26,33% | Mean G% - G% [9]: -14,80% | G% [9]: 69,04% | Mean G% - G% [10]: 36,72% | G% [10]: 17,52% | Mean G% - G% [11]: 16,28% | G% [11]: 37,96% | Mean G% - G% [12]: 4,08% | G% [12]: 50,16% | Mean G% - G% [13]: 0,29% | G% [13]: 53,95% | Mean G% - G% [14]: 1,80% | G% [14]: 52,44% | Mean G% - G% [15]: -11,91% | G% [15]: 66,15% | Mean G% - G% [16]: 36,95% | G% [16]: 17,29% | Mean G% - G% [17]: -15,64% | G% [17]: 69,88% | Mean G% - G% [23]: -13,94% | G% [23]: 68,18% | Mean G% - G% [18]: -55,42% | G% [18]: 109,66% | Mean G% - G% [19]: 33,29% | G% [19]: 20,95% | Mean G% - G% [20]: -17,10% | G% [20]: 71,34% | Mean G% - G% [21]: -12,99% | G% [21]: 67,23% | Mean G% - G% [22]: 54,74% | G% [22]: -0,50%
